Source: patent US20230183243A1, “HETEROARYL DERIVATIVES AND PHARMACEUTICAL COMPOSITION COMPRISING SAME AS ACTIVE INGREDIENT” (VORONOI INC., priority 2019, published 2023)

How the values were obtained:
TTK = molecular target: T1, TTK (Homo sapiens, UniProt P33981); test: TTK enzyme activity, ADP-Glo kinase assay; format: biochemical; parameters: purchased SignalChem T20-10G; settings: purified human TTK, ATP 10 μM, 25° C., 2 hours
T1 sequence (P33981 1-857): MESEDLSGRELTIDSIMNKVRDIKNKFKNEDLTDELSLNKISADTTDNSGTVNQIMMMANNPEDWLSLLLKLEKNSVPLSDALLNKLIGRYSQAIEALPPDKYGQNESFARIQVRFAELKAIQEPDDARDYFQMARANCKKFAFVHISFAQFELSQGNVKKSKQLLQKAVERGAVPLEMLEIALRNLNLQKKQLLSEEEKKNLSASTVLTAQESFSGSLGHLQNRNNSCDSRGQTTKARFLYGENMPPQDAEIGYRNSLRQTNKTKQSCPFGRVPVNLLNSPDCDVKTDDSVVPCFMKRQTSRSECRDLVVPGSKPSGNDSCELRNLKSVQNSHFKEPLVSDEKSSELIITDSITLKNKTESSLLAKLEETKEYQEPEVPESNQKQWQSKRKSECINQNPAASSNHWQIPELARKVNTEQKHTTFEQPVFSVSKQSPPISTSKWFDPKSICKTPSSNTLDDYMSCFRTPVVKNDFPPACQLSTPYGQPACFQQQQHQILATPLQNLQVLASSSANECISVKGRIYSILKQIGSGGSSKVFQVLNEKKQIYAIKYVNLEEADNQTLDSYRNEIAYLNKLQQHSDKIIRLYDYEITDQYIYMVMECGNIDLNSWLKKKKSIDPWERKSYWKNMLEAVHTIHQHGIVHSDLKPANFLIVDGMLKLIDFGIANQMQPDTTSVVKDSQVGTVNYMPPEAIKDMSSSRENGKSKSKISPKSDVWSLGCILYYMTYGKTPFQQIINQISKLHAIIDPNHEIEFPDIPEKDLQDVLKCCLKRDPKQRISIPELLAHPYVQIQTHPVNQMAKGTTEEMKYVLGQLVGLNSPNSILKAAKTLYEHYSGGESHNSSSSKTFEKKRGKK
Method: To evaluate an inhibitory activity of the compound according to the present invention against TTK (MPS1), an experiment was performed as follows.
Each of the Example compounds was reacted with a purified human TTK (SignalChem #T20-10G) enzyme to evaluate an ability to inhibit an enzyme using a method as described below. A composition of 40 mM Tris-HCl (pH 7.4), 20 mM MgCl2, 0.5 mg/mL BSA, and 50 μM DTT was used as a reaction buffer, and all reactions of test substances were performed in the reaction buffer. […] In the test, purified ATP (10 μM) and an enzyme substrate (0.2 μg) were reacted with a human TTK (25 ng) enzyme at 25° C. for 2 hours, and the enzyme activity was determined using an in vitro ADP-Glo™ kinase assay (Promega). […] The degree of inhibition of the enzyme activity according to the treatment concentration of each of the compounds was calculated based on the fluorescence of the enzyme activity of the solvent control which was not treated with the compound.

MDA-MB-231 cells = test: Inhibition of proliferation of triple-negative breast cancer cells, CellTiter-Glo; format: cell-based; settings: Homo sapiens, 120 h; MDA-MB-231, cultured for 5 days
Method: Specifically, the following test was performed in order to evaluate the inhibitory activity of the compound according to the present invention against the cell proliferation in triple-negative breast cancer cells (TNBCs).
Cells were seeded in 180 μL of a culture broth at a density of 2,000 to 3,000 cells/well in a white clear bottom 96-well plate (Corning) according to the growth ability of each cell, and then cultured for 24 hours under conditions of 5% CO2 and 37° C. Thereafter, the compound was prepared by diluting a 10 mM stock solution three-fold with 100% DMSO at a total of 12 concentrations so that a peak concentration of the compound was in a range of 10 mM to 0.05 μM, and the diluted compound was then diluted in each cell culture medium so that a final concentration of the compound was in a range of 100 μM to 0.5 nM. 20 μL of a diluted solution diluted with a medium was added to the cell solution in which cells were seeded in the 96-well plate on the previous day so that a final concentration of the diluted solution was in a range of 10 μM to 0.05 nM. Each of the cells was cultured for 5 days. To check cell viability, a mixture provided in a CellTiter-Glo® Luminescent Cell Viability Assay Kit (Promega) was added to each of the cultured cell media, and cultured for another 10 minutes under a condition of 37° C. Then, a degree of luminescence (fluorescence) was measured. A degree of inhibition of the cell growth according to the treatment concentration of each of the compounds was calculated based on the fluorescence of the solvent control cells which were not treated with the compound.

| SMILES | IC50 (TTK) [µM] | GI50 (MDA-MB-231 cells) [µM] |
| --- | --- | --- |
| CCC(C)Nc1nc(Nc2ccc(N3CCCC3=O)cc2OC)nc2[nH]cc(C#N)c12 (stereo in doubt) [Example 68, (S)-4-(sec-butylamino)-2-((2-methoxy-4-(2-oxopyrrolidin-1-yl)phenyl)amino)-7H-pyrrolo[2,3-d] pyrimidine-5-carbonitrile] | < 0.05 | < 0.1 |
| CC[C@H](C)Nc1nc(Nc2ccc(-c3ccnn3C)cc2OC)nc2[nH]cc(C#N)c12 [Example 1, (S)-4-(sec-butylamino)-2-((2-methoxy-4-(1-methyl-1H-pyrazol-5-yl)phenyl)amino)-7H-pyrrolo[2,3-d] pyrimidine-5-carbonitrile 2,2,2-trifluoroacetate] | < 0.05 | < 0.1 |
| COc1cc(-c2ccn(C)n2)ccc1Nc1nc(NC2CCCC2)c2c(C#N)c[nH]c2n1 [Example 2, 4-(cyclopentylamino)-2-((2-methoxy-4-(1-methyl-1H-pyrazol-3-yl)phenyl)amino)-7H-pyrrolo[2,3-d] pyrimidine-5-carbonitrile] | < 0.05 | < 0.1 |
| COc1cc(N2CCOC2=O)ccc1Nc1nc(NC2CCCCC2)c2c(C#N)c[nH]c2n1 [Example 3, 4-(cyclohexylamino)-2-((2-methoxy-4-(2-oxooxazolidin-3-yl)phenyl)amino)-7H-pyrrolo[2,3-d] pyrimidine-5-carbonitrile] | < 0.05 | 0.1 to 1 |
| COc1cc(-c2ccnn2C)ccc1Nc1nc(NC2CCCCC2)c2cc[nH]c2n1 [Example 4, N^4-cyclohexyl-N^2-(2-methoxy-4-(1-methyl-1H-pyrazol-5-yl)phenyl)-7H-pyrrolo[2,3-d] pyrimidine-2,4-diamine] |  | 0.1 to 1 |
| COc1cc(-c2ccnn2C)ccc1Nc1nc(NC2CCCCC2)c2c(Cl)c[nH]c2n1 [Example 5, 5-chloro-N^4-cyclohexyl-N^2-(2-methoxy-4-(1-methyl-1H-pyrazol-5-yl)phenyl)-7H-pyrrolo[2,3-d] pyrimidine-2,4-diamine] |  | > 1 |
| COc1cc(-c2ccnn2C)ccc1Nc1nc(NC2CCCCC2)c2c(C(F)(F)F)c[nH]c2n1 [Example 6, N^4-cyclohexyl-N^2-(2-methoxy-4-(1-methyl-1H-pyrazol-5-yl)phenyl)-5-(trifluoromethy1)-7H-pyrrolo[2,3-d] pyrimidine-2,4-diamine] |  | > 1 |
| COc1cc(-c2ccnn2C)ccc1Nc1nc(NCC2CCCC2)c2c(C#N)c[nH]c2n1 [Example 8, 4-((cyclopentylmethyl)amino)-2-((2-methoxy-4-(1-methyl-1H-pyrazol-5-yl)phenyl)amino)-7H-pyrrolo[2,3-d] pyrimidine-5-carbonitrile] | 0.05 to 0.2 |  |
| CNc1nc(Nc2ccc(-c3ccnn3C)cc2OC)nc2[nH]cc(C#N)c12 [Example 9, 2-((2-methoxy-4-(1-methyl-1H-pyrazol-5-yl)phenyl)amino)-4-(methylamino)-1H-pyrrolo[2,3-d] pyrimidine-5-carbonitrile] | < 0.05 | > 1 |
| CC[C@@H](C)Nc1nc(Nc2ccc(-c3ccnn3C)cc2OC)nc2[nH]cc(C#N)c12 [Example 10, (R)4-(sec-butylamino)-2-((2-methoxy-4-(1-methyl-1H-pyrazol-5-yl)phenyl)amino)-7H-pyrrolo[2,3-d] pyrimidine-5-carbonitrile 2,2,2-trifluoroacetate] | < 0.05 | < 0.1 |
| CCCCNc1nc(Nc2ccc(-c3nncn3C)cc2OCC)nc2[nH]cc(C#N)c12 [Example 11, 4-(butylamino)-2-((2-ethoxy-4-(4-methyl-4H-1,2,4-triazol-3-yl)phenyl)amino)-7H-pyrrolo[2,3-d] pyrimidine-5-carbonitrile] | < 0.05 | < 0.1 |
| COc1cc(-c2ccnn2C)ccc1Nc1nc(NCC(C)(C)C)c2c(C#N)c[nH]c2n1 [Example 12, 2-((2-methoxy-4-(1-methyl-1H-pyrazol-5-yl)phenyl)amino)-4-(neopentylamino)-7H-pyrrolo[2,3-d] pyrimidine-5-carbonitrile] | < 0.05 | > 1 |
| COCCNc1nc(Nc2ccc(-c3ccnn3C)cc2OC)nc2[nH]cc(C#N)c12 [Example 13] | < 0.05 |  |
| COc1cc(-c2ccnn2C)ccc1Nc1nc(NC2CCOCC2)c2c(C#N)c[nH]c2n1 [Example 15, 2-((2-methoxy-4-(1-methyl-1H-pyrazol-5-yl)phenyl)amino)-4-((tetrahydro-2H-pyran-4-yl)amino)-7H-pyrrolo[2,3-d] pyrimidine-5-carbonitrile] | < 0.05 |  |
| COc1cc(-n2cc(C)nc2C)ccc1Nc1nc(NC2CCCCC2)c2c(C#N)c[nH]c2n1 [Example 34, 4-(cyclohexylamino)-2-((4-(2,4-dimethyl-1H-imidazol-1-yl)-2-methoxyphenyl)amino)-7H-pyrrolo[2,3-d] pyrimidine-5-carbonitrile] |  | < 0.1 |
| CCOc1cc(-c2ccnn2C)ccc1Nc1nc(NC2CCCCC2)c2c(C#N)c[nH]c2n1 [Example 36, 4-(cyclohexylamino)-2-((2-ethoxy-4-(1-methyl-1H-pyrazol-5-yl)phenyl)amino)-7H-pyrrolo[2,3-d] pyrimidine-5-carbonitrile] |  | < 0.1 |
| Cn1nccc1-c1ccc(Nc2nc(NC3CCCCC3)c3c(C#N)c[nH]c3n2)cc1 [Example 37, 4-(cyclohexylamino)-2-((4-(1-methyl-1H-pyrazol-5-yl)phenyl)amino)-7H-pyrrolo[2,3-d] pyrimidine-5-carbonitrile] |  | < 0.1 |
| COc1cc(-c2ccnn2C)ccc1Nc1nc(OC2CCCCC2)c2c(C#N)c[nH]c2n1 [Example 45, 4-(cyclohexyloxy)-2-((2-methoxy-4-(1-methyl-1H-pyrazol-5-yl)phenyl)amino)-7H-pyrrolo[2,3-d] pyrimidine-5-carbonitrile] |  | < 0.1 |
| COc1cc(N2CCCC2=O)ccc1Nc1nc(NC2CCOCC2)c2c(C#N)c[nH]c2n1 [Example 74, 2-((2-methoxy-4-(2-oxopyrrolidin-1-yl)phenyl)amino)-4-((tetrahydro-2H-pyran-4-yl)amino)-7H-pyrrolo[2,3-d] pyrimidine-5-carbonitrile] |  | > 1 |
| COc1cc(N2CCCC2=O)ccc1Nc1nc(NCC(C)(C)C)c2c(C#N)c[nH]c2n1 [Example 77, 2-((2-methoxy-4-(2-oxopyrrolidin-1-yl)phenyl)amino)-4-(neopentylamino)-7H-pyrrolo[2,3-d] pyrimidine-5-carbonitrile] |  | 0.1 to 1 |
| CCOc1cc(N2CCCC2=O)ccc1Nc1nc(NC2CCCCC2)c2c(C#N)c[nH]c2n1 [Example 78, 4-(cyclohexylamino)-2-((2-ethoxy-4-(2-oxopyrrolidin-1-yl)phenyl)amino)-7H-pyrrolo[2,3-d] pyrimidine-5-carbonitrile] |  | 0.1 to 1 |
| N#Cc1c[nH]c2nc(Nc3ccc(N4CCCC4=O)cc3)nc(NC3CCCCC3)c12 [Example 80, 4-(cyclohexylamino)-2-((4-(2-oxopyrrolidin-1-yl)phenyl)amino)-7H-pyrrolo[2,3-d] pyrimidine-5-carbonitrile] |  | < 0.1 |
| COc1cc(N2CCOCC2=O)ccc1Nc1nc(NC2CCCCC2)c2c(C#N)c[nH]c2n1 [Example 81, 4-(cyclohexylamino)-2-((2-methoxy-4-(3-oxomorpholino)phenyl)amino)-7H-pyrrolo[2,3-d] pyrimidine-5-carbonitrile] |  | < 0.1 |
